Assay results as given in US9308282B2, “[F-18]-labelled L-glutamic acid and L-glutamine derivatives (I), their use and processes for their preparation” (PIRAMAL IMAGING SA, priority 2008, dated 2016).

Tests used:
A549 tumour = test: PET/CT imaging in mice bearing A549 tumours; format: in vivo; conditions: 60 min after i.v. 10 MBq, 20 min data acquisition
H460 tumour = test: PET with rats bearing H460 tumours; format: in vivo; conditions: 80 min after i.v. 18 MBq, 20 min data acquisition
[1] = system: A549 and H460 tumour cells; test: cell uptake of S-configured, F-18-labelled glutamic acid derivatives
From the text: Following labelling with F-18, (2S,4S)-2-amino-4-(3-[F-18]fluoropropyl)pentanedioic acid was examined in cell experiments with A549 and H460 tumour cells (both human non-small-cell bronchial carcinoma cell lines).

Compound: N[C@@H](C[C@H](CCC[18F])C(=O)O)C(=O)O
- PET/CT image analysis: uptake into the A549 tumour (A549 tumour): high uptake
- PET image analysis: uptake into the H460 tumour (H460 tumour): high uptake
- cellular uptake over time [1]: time-dependent cellular uptake
